How the values were obtained:
[1] = test system: pepper plants; experiment: Spraying the emulsions on pepper plants for phytotoxicity symptoms; format: in vivo
[2] = test system: The tested bacteria; experiment: Disc diffusion method, positive control (bacterium not specified); format: cell-based; settings: positive control 3% H2O2 solution, 27° C., 48 hours
Description: Bacteria were grown in nutrient broth test tubes at 27° C. for 24 hrs. The paper discs were sterilized by autoclave in preparation for the disc diffusion method. Each bacteria ([…]), was placed on Nutrient agar (NA) plates and allowed to dry for 3-5 minutes. The paper discs were saturated in 100% concentration of the oregano essential oil (20 ul), and then placed onto each NA plate freshly coated with bacteria. The positive control used was 3% H2O2 solution and the negative control was DI water. The plates were incubated at 27° C. for 48 hours. The zone of inhibition was measured by standard ruler.

[3] = plants sprayed with emulsion of 25% oregano oil with 5% sesame oil made with the emulsifier, data not shown

Molecule	Phytotoxicity on pepper plants [1, 3]	also measured
CCCCCCCCCCCCCCCCCC(=O)[O-].[Na+] [sodium stearate, Sodium Stearate]	very vital	–
CCCCCCCCCCCCOS(=O)(=O)[O-].[Na+] [SDS]	–	Phytotoxicity on pepper plants ([1]; in vivo): phytotoxicity
Triton X100	phytotoxicity	–
OO [P. control, H2O2]	–	Inhibition zone (mm) [2]: 8 mm
CCCCCCCC/C=C\CCCCCCCC(=O)OCCOCC(OCCO)C1OCC(OCCO)C1OCCO (centres unmarked) [Tween 80]	phytotoxicity	–

— patent US10285405B2, “Oil carrying particulate matter and uses thereof” (Nobactra Israel Ltd., priority 2013, dated 2019)
